From patent US8008488B2 (Abbott GmbH & Co. KG, priority 2003, dated 2011)
Where a name gives a salt, the structure may show the parent alone.

How the values were obtained:
[1] = target: T1, human dopamine D3 receptors (Homo sapiens, UniProt P35462); assay: Dopamine D3 receptor binding, displacement of [125I]-iodosulpride; details: membranes from HEK-293 cells with stably expressed human D3 receptors, 0.1 nM [125I]-iodosulpride
T1 construct: expressed in transfected cells

[2] = target: T2, human dopamine D2L receptors (long isoform) (Homo sapiens, UniProt P14416); assay: Dopamine D2L receptor binding, displacement of [125I]-iodospiperone; details: *Ki(D2L)/Ki(D3), HEK-293 membranes, 0.01 nM [125I]-iodospiperone
T2 construct: expressed in transfected cells
Summary of the method: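 Triplicate incubations ran 60 min at 25 °C in pH 7.4 Tris buffer with 120 mM NaCl, 5 mM KCl, 2 mM CaCl2, 2 mM MgCl2 and 0.1% BSA. Bound radioactivity was collected by GF/B filtration and counted as dpm. Inhibition curves were fitted by iterative nonlinear regression.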

T1 sequence (P35462 whole entry): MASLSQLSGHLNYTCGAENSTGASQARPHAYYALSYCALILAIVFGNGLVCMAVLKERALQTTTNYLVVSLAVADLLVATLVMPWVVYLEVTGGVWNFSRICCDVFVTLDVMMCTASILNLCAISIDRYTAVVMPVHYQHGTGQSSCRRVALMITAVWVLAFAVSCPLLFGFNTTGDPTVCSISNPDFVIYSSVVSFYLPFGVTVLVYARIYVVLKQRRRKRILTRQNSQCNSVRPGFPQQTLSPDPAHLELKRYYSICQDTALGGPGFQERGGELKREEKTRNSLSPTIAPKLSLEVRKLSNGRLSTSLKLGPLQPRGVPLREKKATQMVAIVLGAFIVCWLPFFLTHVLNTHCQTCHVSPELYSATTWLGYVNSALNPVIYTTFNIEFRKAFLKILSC
T2 sequence (P14416 whole entry, canonical isoform): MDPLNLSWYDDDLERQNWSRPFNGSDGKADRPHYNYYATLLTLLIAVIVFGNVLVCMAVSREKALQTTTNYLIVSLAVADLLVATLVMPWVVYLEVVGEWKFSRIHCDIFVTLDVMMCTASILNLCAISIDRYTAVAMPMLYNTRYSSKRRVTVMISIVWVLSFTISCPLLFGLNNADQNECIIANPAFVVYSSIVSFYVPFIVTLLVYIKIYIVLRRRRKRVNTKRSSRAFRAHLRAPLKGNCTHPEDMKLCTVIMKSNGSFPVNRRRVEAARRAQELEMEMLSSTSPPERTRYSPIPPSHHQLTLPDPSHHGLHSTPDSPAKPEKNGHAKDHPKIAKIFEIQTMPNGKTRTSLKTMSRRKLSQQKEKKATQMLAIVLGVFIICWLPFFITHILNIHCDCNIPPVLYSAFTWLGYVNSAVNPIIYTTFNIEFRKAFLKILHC

Molecule | Ki [1] | Selectivity D3 vs. D2L* [2]
CC(C)(C)c1nc(N2CCN(CCCCn3ccc(-c4cccc(F)c4)nc3=O)CC2)cc(C(F)(F)F)n1 [Example 73, 4-(2-tert-Butyl-6-trifluoromethylpyrimidin-4-yl)-1-{4-[4-(3-fluorophenyl)-2-oxo-2H-pyrimidin-1-yl]butyl}piperazin-1-ium fumarate] | 9.3 nM | 31
Cc1cn(CCCCN2CCN(c3cc(C(F)(F)F)nc(C(C)(C)C)n3)CC2)c(=O)nc1S [Example 2, 1-(4-{4-[2-tert-Butyl-6-(trifluoromethyl)pyrimidin-4-yl]piperazin-1-yl}butyl)-4-mercapto-5-methylpyrimidin-2(1H)-one] | 3.23 nM | 88
CC(C)(C)c1nc(N2CCN(CCCCn3ccc(O)nc3=O)CC2)cc(C(F)(F)F)n1 [Example 13] | 1.88 nM | 104
CCCc1cc(N2CCN(CCCCn3ccc(C4CCC4)nc3=O)CC2)nc(C(C)(C)C)n1 [Example 74, 1-{4-[4-(2-tert-Butyl-6-propylpyrimidin-4-yl)piperazin-1-yl]butyl}-4-cyclobutyl-1H-pyrimidin-2-one] | 1.52 nM | 53
Cc1cn(CCCCN2CCN(c3cc(C(F)(F)F)cc(C(F)(F)F)c3)CC2)c(=O)[nH]c1=O [Example 125, 1-{4-[4-(3,5-Bis-trifluoromethylphenyl)piperazin-1-yl]butyl}-5-methyl-1H-pyrimidine-2,4-dione] | 6.8 nM | 63
O=c1nc(-c2ccccc2)ccn1CCCCN1CCN(c2cccc(Cl)c2Cl)CC1 [Example 81, 4-(2,3-Dichlorophenyl)-1-[4-(2-oxo-4-phenyl-2H-pyrimidin-1-yl)butyl]piperazin-1-ium fumarate] | 2.56 nM | 94
CCCc1cc(N2CCN(CCCCn3ccc(C4CCCCC4)nc3=O)CC2)nc(C(C)(C)C)n1 [Example 100, 4-(2-tert-Butyl-6-propylpyrimidin-4-yl)-1-[4-(4-cyclohexyl-2-oxo-2H-pyrimidin-1-yl)butyl]piperazin-1-ium fumarate] | 1.38 nM | 51
CCCc1cc(N2CCN(CCCCn3ccc(C(F)(F)F)nc3=O)CC2)nc(C(C)(C)C)n1 [Example 41, 1-{4-[4-(2-tert-Butyl-6-propylpyrimidin-4-yl)piperazin-1-yl]butyl}-4-trifluoromethyl-1H-pyrimidin-2-one] | 5.78 nM | 62
CCCc1cc(N2CCN(CCCCn3ccc(-c4ccc(F)cc4)nc3=O)CC2)nc(C(C)(C)C)n1 [Example 44, 1-{4-[4-(2-tert-Butyl-6-propylpyrimidin-4-yl)piperazin-1-yl]butyl}-4-(4-fluorophenyl)-1H-pyrimidin-2-one] | 0.63 nM | 158
CCc1ccn(CCCCN2CCN(c3cc(C(F)(F)F)nc(C(C)(C)C)n3)CC2)c(=O)n1 [Example 95, 4-(2-tert-Butyl-6-trifluoromethylpyrimidin-4-yl)-1-[4-(4-ethyl-2-oxo-2H-pyrimidin-1-yl)butyl]piperazin-1-ium fumarate] | 6.53 nM | 45
CC(CCCn1ccc(=O)[nH]c1=O)N1CCN(c2cc(C(F)(F)F)nc(C(C)(C)C)n2)CC1 (centres unmarked) [Example 62, 1-{4-[4-(2-tert-Butyl-6-trifluoromethylpyrimidin-4-yl)piperazin-1-yl]pentyl}-1H-pyrimidine-2,4-dione] | 11 nM | 49
CCCc1cc(N2CCN(CCCCn3ccc(C)nc3=O)CC2)nc(C(C)(C)C)n1.Cl [Example 35, 4-(2-tert-Butyl-6-propylpyrimidin-4-yl)-1-[4-(4-methyl-2-oxopyrimidin-1 (2H)-yl)butyl]piperazin-1-ium chloride] | 4.96 nM | 116
CC(C)(C)c1cc(N2CCN(CCCCn3ccc(=O)[nH]c3=O)CC2)nc(C(C)(C)C)n1 [Example 33, 1-{4-[4-(2,6-di-tert-Butylpyrimidin-4-yl)piperazin-1-yl]butyl}pyrimidine-2,4(1H,3H)-dione] | 0.7 nM | 42
CC(C)(C)c1nc(N2CCN(CCCCn3cc(C(F)(F)F)c(=O)[nH]c3=O)CC2)cc(C(F)(F)F)n1 [Example 55, 1-{4-[4-(2-tert-Butyl-6-trifluoromethylpyrimidin-4-yl)piperazin-1-yl]butyl}-5-trifluoromethyl-1H-pyrimidine-2,4-dione] | 5.44 nM | 119
1-{4-[4-(2-tert-Butyl-6-propylpyrimidin-4-yl)piperazin-1-yl]butyl}-4-methyl-1H-pyrimidin-2-one [Example 69] | 1.8 nM | 54
CC(C)(C)c1nc(N2CCN(CCCCn3cc(C#N)c(=O)[nH]c3=O)CC2)cc(C(F)(F)F)n1 [Example 18, 1-(4-{4-[2-tert-Butyl-6-(trifluoromethyl)pyrimidin-4-yl]piperazin-1-yl}butyl)-2,4-dioxo-1,2,3,4-tetrahydropyrimidine-5-carbonitrile] | 4.78 nM | 99
CCCc1cc(N2CCN(CCCCn3ccc(-c4ccccc4C)nc3=O)CC2)nc(C(C)(C)C)n1 [Example 57, 4-(2-tert-Butyl-6-propylpyrimidin-4-yl)-1-[4-(2-oxo-4-(o-tolyl)-2H-pyrimidin-1-yl)butyl]-piperazin-1-ium fumarate] | 0.96 nM | 111
Cc1cn(CC(C)CCN2CCN(c3cc(C(F)(F)F)nc(C(C)(C)C)n3)CC2)c(=O)[nH]c1=O (centres unmarked) [Example 37, 1-(4-{4-[2-tert-Butyl-6-(trifluoromethyl)pyrimidin-4-yl]piperazin-1-yl}-2-methylbutyl)-5-methylpyrimidine-2,4(1H,3H)-dione] | 3.24 nM | 126
Cc1cccc(N2CCN(CCCCn3cc(C)c(=O)[nH]c3=O)CC2)c1C [Example 128, 1-{4-[4-(2,3-Dimethylphenyl)piperazin-1-yl]butyl}-5-methyl-1H-pyrimidine-2,4-dione] | 2.4 nM | 55
CC(C)(C)c1ccn(CCCCN2CCN(c3cc(C4CC4)nc(C(C)(C)C)n3)CC2)c(=O)n1 [Example 19, 4-tert-Butyl-1-{4-[4-(2-tert-butyl-6-cyclopropylpyrimidin-4-yl)piperazin-1-yl]butyl}pyrimidin-2(1H)-one] | 1.44 nM | 96
CCCc1cc(N2CCN(CCCCn3ccc(-c4ccco4)nc3=O)CC2)nc(C(C)(C)C)n1 [Example 50, 1-{4-[4-(2-tert-Butyl-6-propylpyrimidin-4-yl)piperazin-1-yl]butyl}-4-furan-2-yl-1H-pyrimidin-2-one] | 0.72 nM | 77
CCCc1cc(N2CCN(CCCCn3cc(CC)c(=O)[nH]c3=O)CC2)nc(C(C)(C)C)n1 [Example 84, 4-(2-tert-Butyl-6-propylpyrimidin-4-yl)-1-[4-(5-ethyl-2,4-dioxo-3,4-dihydro-2H-pyrimidin-1-yl)butyl]piperazin-1-ium fumarate] | 0.75 nM | 63
Cc1cn(CCCCN2CCN(c3cc(C(F)(F)F)nc(C(C)(C)C)n3)CC2)c(=O)nc1N(C)C.Cl [Example 12, 1-[2-tert-Butyl-6-(trifluoromethyl)pyrimidin-4-yl]-4-{4-[4-(dimethylamino)-5-methyl-2-oxopyrimidin-1 (2H)-yl]butyl}piperazin-4-ium chloride] | 3.44 nM | 63
Cc1cc(C)cc(N2CCN(CCCCn3cc(C)c(=O)[nH]c3=O)CC2)c1 [Example 132, 1-{4-[4-(3,5-Dimethylphenyl)piperazin-1-yl]butyl}-5-methyl-1H-pyrimidine-2,4-dione] | 5.5 nM | 34
CCCc1cc(N2CCN(CCCCn3ccc(C(C)(C)C)nc3=O)CC2)nc(C(C)(C)C)n1.Cl [Example 21, 1-[4-(4-tert-Butyl-2-oxopyrimidin-1 (2H)-yl)butyl]-4-(2-tert-butyl-6-propylpyrimidin-4-yl)piperazin-1-ium chloride] | 1.94 nM | 96
